From patent US20100254928A1, “NOVEL COMPOSITION CONTAINING OZONIZED SURFACTANT” (priority 2007, published 2010)

Tests used:
[1] = Temporal change in oxidizing property (iodine titration method); format: physicochemical; settings: 25° C.
Text: After deaerating the obtained aqueous ozonized surfactant solution to remove dissolved ozone gas by helium purging, the oxidizing property of the aqueous ozonized surfactant solution can be determined by the iodine titration method (see Non Patent Literature 1). Whether or not the aqueous ozonized surfactant solution maintains a function as a surfactant can be evaluated by checking whether or not frothing, which is a characteristic of surfactants, occurs when the solution is agitated or vibrated.
Meanwhile, oxygen was supplied from an oxygen cylinder into an ozonizer (ozonizer GR-RB made by Sumitomo Precision Products Co., Ltd.) at an oxygen flow rate of 0.3 L/min to ozonize the oxygen to produce ozone gas. Then, the ozone gas was dissolved in the above-described aqueous solution in a dissolving module (SEK model made by ERC Technology), and the aqueous solution was circulated at a flow rate of 1 L/min. […] Further, in 30 minutes, the concentration increased to 25 ppm (see FIG. 2). After deaerating the aqueous solution that had undergone about 30-minute ozone treatment to remove dissolved ozone gas by helium purging, oxidizing property of the aqueous solution was determined by the iodine titration method. As a result, the aqueous solution had oxidizing property, and frothing, which is a characteristic of surfactants, was observed. The results confirmed that ozonized Tween 80 had been produced. Further, a temporal change in the oxidizing property of the aqueous solution was determined by the iodine titration method at 25° C. for 20 days. As a result, the percentage of oxidizing property measured after 20 days to that measured just after preparation was 109%.
The solution A was diluted to a 1% aqueous solution, and a temporal change in the oxidizing property of the aqueous solution was determined by the iodine titration method at 25° C. for 700 days. As a result, the percentage of oxidizing property measured after 700 days to that measured just after preparation was 101%.

insects such as ants = experiment: Repellent activity (Test Example 14); format: in vivo, pill bug; settings: 2 mL of 1% aqueous solution on tissue paper with 1 g honey, 8 hours
Experimental: The repellent performance of the ozonized surfactant of the present invention was checked. […] In addition, 1 g of honey was instilled into the center. […] These specimens were placed on leaf mold in a flower bed, and the conditions were observed 8 hours later.

slug = experiment: Insecticidal activity: test of killing slugs; format: in vivo; settings: 1% aqueous solution, 2 pushes: 1.88 mL sprayed from 15 cm above
Experimental: In order to check the insect control performance of the ozonized surfactant, a test of killing slugs was performed. A slug was put into a glass petri dish. Onto the slug, a 1% aqueous solution of the ozonized surfactant obtained in Example 4, 5, 7, 9 or 10 (2 pushes: 1.88 mL) was sprayed from 15 cm above. After that, the time elapsed until the slug died (the motion stopped) was measured. As a control, the same evaluation was simultaneously performed with a commercial insecticide (product name: NEW Namekuji (slug) Spray, made by Sumitomo Chemical Garden Products Inc., Lot No. 11.05 0806JE) containing a natural substituted phenol, a copper compound and an alcohol, as active ingredients.

[2] = Surface-active property test (contact angle); format: physicochemical
Experimental: The surface-active properties of ozonized surfactants were determined in the following manner. Aqueous solutions each containing 1% Tween 80, POE (10 EO) oleyl ether or POE (20 EO) oleyl ether (all of which were made by Wako Pure Chemical Industries, Ltd.) were prepared. Each solution was dropped on a polyvinyl chloride plate and measured for a contact angle (θ) with the use of a contact angle meter CA-VP (made by Kyowa Interface Science Co., Ltd.). The same measurement was carried out for a 1% aqueous solution of the ozonized surfactant obtained in Example 1, 4, or 8.

[3] = test system: mold (filamentous fungus); experiment: Evaluation of antiseptic activity in thickener solution; format: cell-based; settings: 0.1% in 3.5% Carbopol ETD2020 aqueous solution, 25° C.
Experimental: In order to check the antiseptic performance of ozonized surfactants, the ozonized surfactants were added to a substance susceptible to mold. […] Into a 100 mL-glass bottle, 50 mL of the sample was charged. The bottles were kept at 25° C. in a thermostatic air chamber, and temporal changes were visually observed. […] The mold-like material was removed and examined under a 700-power microscope. As a result, spores were detected and the material was identified as a filamentous fungus. The above results confirmed the antiseptic activity of the ozonized surfactants.

[4] = test system: Sphrageidus similis larva; experiment: Insecticidal activity: test of killing other insects; format: in vivo; settings: 2% aqueous solution, 1.88 mL sprayed
Experimental: (§1) In order to check the insect control performance of the ozonized surfactant, a test of killing other insects was performed. An Orgyia thyellina larva, a Sphrageidus similis larva, and an Arge pagana larva were put into separate glass petri dishes. Onto each insect pest, a 2% aqueous solution of the solution obtained in Example 5 (2 pushes: 1.88 mL) was sprayed from 15 cm above. After that, the time elapsed until each insect died (the motion stopped) was measured.

Orgyia thyellina larva = experiment: as above; format: in vivo; settings: 2% aqueous solution, 1.88 mL sprayed
Experimental: as §1

Arge pagana larva = experiment: as above; format: in vivo; settings: 2% aqueous solution, 1.88 mL sprayed
Experimental: as §1

Ozonized POE (20 EO) oleyl ether [Example 8]
percentage of oxidizing property measured after 300 days to that measured just after preparation ([1]; 1% aqueous solution, 300 days): 100%

decaglycerin monooleate [Decaglycerol monooleate, reference compound]
ants gathered on the specimen (insects such as ants): 10 ants

ozonized Tween 80 [Example 1]
percentage of oxidizing property measured after 20 days to that measured just after preparation ([1]; 0.1% aqueous solution, 20 days): 109%

Ozonized POE sorbitan monooleate (20 EO) [Example 7]
Death time of slug (slug): 244 s
percentage of oxidizing property measured after 700 days to that measured just after preparation ([1]; 1% aqueous solution, 700 days): 100%

POE (20 EO) oleyl ether
Contact angle, After ozonization ([2]; 1% aqueous solution of the ozonized surfactant obtained in Example 1, 4, or 8, on polyvinyl chloride plate): 26.7 degree (°)
Contact angle, Before ozonization ([2]; 1% aqueous solution on polyvinyl chloride plate, ion exchange water 87.3°): 59.4 degree (°)

CCCCCCCC/C=C\CCCCCCCC[N+](C)(C)CCCCCCCC/C=C\CCCCCCCC.[Cl-] [Unozonized surfactant of Ex. 10, dimethyldioleylammonium chloride, reference compound]
ants gathered on the specimen (insects such as ants): 15 ants

Ozonized decaglycerin monooleate [Example 6]
Antiseptic activity of thickener soln. (visually observed), 1 month after [3]: Good
Antiseptic activity of thickener soln. (visually observed), 1 week after [3]: Good
insects gathered on the specimen (insects such as ants): did not gather at all

Ozonized polyethylene glycol monooleate [Example 5]
Antiseptic activity of thickener soln. (visually observed), 1 month after [3]: Good
Antiseptic activity of thickener soln. (visually observed), 1 week after [3]: Good
Death time [4]: 130 s
Death time (Orgyia thyellina larva): 100 s
Death time (Arge pagana larva): 115 s
Death time of slug (slug): 729 s
percentage of oxidizing property measured after 180 days to that measured just after preparation ([1]; 1% aqueous solution, 180 days): 100%
